The compounds below were run against human Arginine Vasopressin Receptor 1a (AVPR1a) (Homo sapiens, UniProt P37288) (assay: cell-based). Conditions: not given.
Chain of human Arginine Vasopressin Receptor 1a (AVPR1a) (P37288 whole entry): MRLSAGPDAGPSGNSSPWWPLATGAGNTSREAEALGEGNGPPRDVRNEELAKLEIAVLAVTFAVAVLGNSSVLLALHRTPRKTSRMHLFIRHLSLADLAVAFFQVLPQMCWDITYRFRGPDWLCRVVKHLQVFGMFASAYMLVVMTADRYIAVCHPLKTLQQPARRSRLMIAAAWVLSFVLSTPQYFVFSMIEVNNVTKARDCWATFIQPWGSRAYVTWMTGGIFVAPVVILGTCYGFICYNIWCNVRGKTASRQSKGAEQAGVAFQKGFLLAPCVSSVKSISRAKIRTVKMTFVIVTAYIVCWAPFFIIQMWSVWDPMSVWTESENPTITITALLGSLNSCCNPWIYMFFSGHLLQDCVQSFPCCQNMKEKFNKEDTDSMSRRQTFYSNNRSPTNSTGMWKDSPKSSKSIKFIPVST
`O=C(C1CCN(c2ccc(Cl)cn2)CC1)N(CC1CC1)c1ccc(Cl)cc1` [Compound 141] was tested, and the IC50 was 0.04 µM. `O=C(C1CCN(c2ccc(F)cn2)CC1)N(CC1CC1)c1ccc(Cl)cc1` [Compound 146] gave an IC50 of 0.024 µM. `O=C(C1CCN(c2ncccc2F)CC1)N(CC1CC1)c1ccc(Cl)cc1` [Compound 140] was tested, and the IC50 was 0.015 µM. `N#CC1(c2ccccc2)CCN(C(=O)N2CCCCc3cc(Cl)ccc32)CC1` [Compound 134] gave an IC50 of 0.358 µM.

Same assay, conditions: read-out: V1a-R IC50
For `Cc1cc(C)nc(N2CCC(C(=O)N3CCCC(O)c4cc(Cl)ccc43)CC2)n1` (stereo not drawn) [Compound 195], the IC50 was 0.026 µM. Compound `N#Cc1cccnc1N1CCN(C(=O)N(CC2CC2)c2ccc(Cl)cc2)CC1` [Compound 159] has an IC50 of 0.081 µM. `O=C(N1CCN(c2ccccn2)CC1)N1CCCCc2cc(Cl)ccc21` [Compound 122] was tested, and the IC50 was 0.08 µM. `O=C(C1CCN(c2nccc(C(F)(F)F)n2)CC1)N1CCCCc2cc(Cl)ccc21` [Compound 174] was tested, and the IC50 was 0.082 µM. `O=C(C1CCN(c2nc3ccc(Cl)cc3o2)CC1)N(CC1CC1)c1ccc(Cl)cc1` [Compound 207] gave an IC50 of 0.35 µM. For `O=C(c1cccc(C(F)(F)F)c1)N1CCC(C(=O)N2CCCCc3cc(Cl)ccc32)CC1` [Compound 88], the IC50 was 0.595 µM. With `O=C(C1CCN(c2ncccc2Cl)CC1)N(CC1CC1)c1ccc(Cl)cc1` [Compound 144] the IC50 was 0.023 µM. `Cc1cc(C)nc(N2CCC(C(=O)N(CCC(C)C)c3ccc(Cl)cc3)CC2)n1` [Compound 199] was tested, and the IC50 was 0.794 µM. `COc1ccc(C(=O)N2CCC(C(=O)N3CCCCc4cc(Cl)ccc43)CC2)cc1` [Compound 85] was tested, and the IC50 was 1.78 µM. With `Cc1cc(C)nc(N2CCC(C(=O)N3CCCC(F)c4cc(Cl)ccc43)CC2)n1` (stereo not drawn) [Compound 196] the IC50 was 0.084 µM. `Cc1cc(Cl)cnc1N1CCC(C(=O)N(CC2CC2)c2ccc(Cl)cc2)CC1` [Compound 217] showed an IC50 of 0.05 µM. In the case of `O=C(C1CCN(c2ncc3c(n2)CCC3)CC1)N(CC1CC1)c1ccc(Cl)cc1` [Compound 208], the IC50 is reported as 0.033 µM. With `CCc1cnc(N2CCC(C(=O)N3CCCCc4cc(Cl)ccc43)CC2)nc1` [Compound 182] the IC50 was 0.049 µM. In the case of `Cc1ccnc(N2CCC(C(=O)N(CC3CC3)c3ccc(Cl)cc3)CC2)n1` [Compound 169], the IC50 is reported as 0.051 µM. With `O=C(C1CCN(c2ncc3ccccc3n2)CC1)N(CC1CC1)c1ccc(Cl)cc1` [Compound 204] the IC50 was 0.097 µM. `O=C(C1CCN(c2ncc(Cl)cc2F)CC1)N1CCCCc2cc(Cl)ccc21` [Compound 223] was tested, and the IC50 was 0.019 µM. `O=C(C1CCN(c2ncc(F)cn2)CC1)N1CCCCc2cc(Cl)ccc21` [Compound 162] gave an IC50 of 0.035 µM. `Cc1nc(N2CCC(C(=O)N3CCCCc4cc(Cl)ccc43)CC2)c2ccccc2n1` [Compound 185] was tested, and the IC50 was 0.032 µM. `O=C(C1CCN(c2ncc(C(F)(F)F)cn2)CC1)N(CC1CC1)c1ccc(Cl)cc1` [Compound 203] gave an IC50 of 0.57 µM. With `O=C(C1CCN(c2ccc(F)cn2)CC1)N1CCCCc2cc(Cl)ccc21` [Compound 224] the IC50 was 0.011 µM. For `Cc1cccnc1N1CCN(C(=O)N(CC2CC2)c2ccc(Cl)cc2)CC1` [Compound 160], the IC50 was 0.008 µM. Work on `O=C(C1CCN(c2ncc(C3CC3)cn2)CC1)N(CC1CC1)c1ccc(Cl)cc1` [Compound 202] yielded an IC50 of 0.348 µM. Compound `O=C(c1ccc(C(F)(F)F)cc1)N1CCC(C(=O)N2CCCCc3cc(Cl)ccc32)CC1` [Compound 87] has an IC50 of 1.87 µM. `O=C(C1CCN(c2ncnc3cc(Cl)ccc23)CC1)N(CC1CC1)c1ccc(Cl)cc1` [Compound 193] gave an IC50 of 0.861 µM. `O=C(c1cc(F)cc(F)c1)N1CCC(C(=O)N2CCCCc3cc(Cl)ccc32)CC1` [Compound 116] showed an IC50 of 1.6 µM. With `CS(=O)(=O)c1ccc(C(=O)N2CCC(C(=O)N3CCCCc4cc(Cl)ccc43)CC2)cc1` [Compound 118] the IC50 was 12.9 µM. For `O=C(c1ccc(Cl)cc1)N1CCC(C(=O)N2CCCCc3cc(Cl)ccc32)CC1` [Compound 86], the IC50 was 0.835 µM. For `Cc1cc(N2CCC(C(=O)N(CC3CC3)c3ccc(Cl)cc3)CC2)nc(C)n1` [Compound 192], the IC50 was 1.25 µM. Compound `N#Cc1cccnc1N1CCC(C(=O)N(CC2CC2)c2ccc(Cl)cc2)CC1` [Compound 142] has an IC50 of 0.067 µM.

Source: US20150376198A1, “MODULATORS OF VASOPRESSIN RECEPTORS WITH THERAPEUTIC POTENTIAL” (priority 2013, published 2015)
